Results published in patent US11511095B2, “Portable transdermal administration patch apparatus and preparation method thereof” (CHANGZHOU HUALIAN HEALTH DRESSING LTD., priority 2017, dated 2022).

Assay: Simulation experiment of in vitro transdermal drug delivery in pig skin (Franz diffusion cell)
Assay type: in vitro ADME
Settings: 37° C.
Source text: Simulation experiment of in vitro transdermal drug delivery in pig skin:
(1) pig skin with a thickness of 300-500 μm and an area of 1.0 cm^2 was selected and placed between the Franz diffusion cell supply cell and the Franz diffusion cell receiving cell. An […] side of the pig skin was oriented toward the supply cell, and then the patch apparatus was placed in the supply cell and was attached to the epidermis of the pig skin. The receiving cell was filled with phosphate buffered saline to simulate blood circulation, and the temperature in the receiving cell was maintained at 37° C. to simulate human body temperature.
(2) Set the electric quantity: 0.1 mA, the conduction time is 24 hours as desired. Press a power switch of the patch apparatus.

[1] = this method/apparatus, quantity of electric charge 2.4 mA * hour (0.1 mA, 24 hours)
[2] = traditional patch, quantity of electric charge 0 mA * hour, 24 hours

With Cc1nccn1CC1CCc2c(c3ccccc3n2C)C1=O (stereo not shown) [ondansetron] the “Administration dosage (μg/cm^2 skin area contacted by the drug formulation)” value [1] was 53.2 μg/cm^2, the Administration speed [1] was 1.8 μg/(cm^2 * h) and the “Administration dosage (μg/cm^2 skin area contacted by the drug formulation)” value [2] was 1.2 μg/cm^2. For the same molecule, the Administration speed [2] was 0.1 μg/(cm^2 * h).
